Laboratory results reported in patent US7148020B2, “Triple polypeptide complexes” (Arexis AB, priority 2001, dated 2006).
Ends that are not written are not given here.

Legend:
[1] = test system: CII(256-270)/Aq-specific T cell hybridoma cells; test: Antigen presentation, IL-2 production of T cell hybridoma measured by ELISA; type: cell-based, mice
Procedure: Antigen-presentation of polypeptides and triple helical polypeptide complexes was studied using A^q-restricted HDQ.9, A^q-restricted HRC.2, A^q-restricted HCQ.4, and DR4-restricted 1259 T cell hybridomas. Briefly, A^q-restricted spleen cells were derived from DBA/1 mice, and DR4-restricted spleen cells were derived from DR4^+/_H-2^−/_mice. T cell hybridoma cells (5×10^4 cells/well) were incubated with polypeptides and polypeptide complexes (20 μg/mL, dilution 1:5) and 5×10^5 spleen cells per well (normal or fixed in 1% paraformaldehyde for 15 min at room temperature) in a volume of 200 μL in 96-well plates for 24 hours. The reactivity of the hybridoma cells toward the polypeptides and triple helical polypeptide complexes, reflected by IL-2 production, was measured by ELISA using europium-labeled streptavidin (WALLAC, Turku).

[2] = test system: HCQ.4 T cell hybridoma cells; test: T cell hybridoma stimulation with Langerhans cells, IL-2 by CTLL assay; type: cell-based, mice; details: 10 μg/mL, Langerhans cells as antigen presenting cells, 24 hours (FIG. 3)
Procedure: Langerhans cells (dendritic cells) were prepared from ear skin of B10Q×DBA/1 mice and purified with selection on N418 marker. Once purified, Langerhans cells were mixed with HCQ.4 T cell hybridoma cells (1×10^5 cell/well), and the mixture incubated with media containing 10 μg/mL of [(Gly-Pro-Hyp)5-CII(259-274)-(Gly-Pro-Hyp)2]3LAhx (a linked polypeptide), CII(259-270) (an unlinked polypeptide), or native rat CII for 24 hours. After the 24-hour incubation, 0.5 μCi ^3H-thymidine/well (Radiochemical Centre, Amersham,UK) was added, and the cells incubated for an additional 18 hours. After this incubation, the supernatants were assayed for IL-2 content using a CTLL assay. Results were presented as means of duplicates.

[3] = test system: C3H.Q mice, arthritis induced with rat CII; test: Vaccination of adult mice, arthritis induced with rat CII; type: in vivo
Procedure: Male and female C3H.Q mice were used in two separate experiments. In each experiment, adult mice 8–12 weeks old were injected intradermally at the base of the tail with CII(256-270) (unlinked polypeptides), [(Gly-Pro-Hyp)5-CII(259-274)-(Gly-Pro-Hyp)2]3LAhx (linked polypeptides), or PBS. Specifically, each mouse received 100 μL of PBS or 100 μL of polypeptide (100 μg) emulsified in incomplete Freund's adjuvant.
After three weeks, the mice were treated with rat CII emulsified in complete Freund's adjuvant. Specifically, each mouse received 100 μL containing 100 μg of rat CII injected intradermally around the base of the tail. […] In addition, five weeks after treating the mice with rat CII, blood samples were collected to determine the antibody response.

[4] = test system: C1 mAb and M2.139 mAb; test: Immunoreactivity of conformation dependent monoclonal antibodies on coated microtiter wells; type: binding, mouse; details: compared with native CII (FIG. 8)
Procedure: Microtiter plates (Nunc, Wiesbaden, Germany) were coated overnight with [(Gly-Pro-Hyp)5-CII(358-366Hyp-369)-(Gly-Pro-Hyp)2]3LAhx or [(Gly-Pro-Hyp)5-CII(551-552Hyp-564)-(Gly-Pro-Hyp)2]3LAhx at 4° C. and blocked with 2% BSA in phosphate buffered saline (PBS, pH 7.4) for one hour. The presentation of a native collagen conformation on the plastic surface of the microtiter well was controlled by the immunoreactivity of two mouse monoclonal antibodies (C1 mAb having specificity for the CII(358-369) region and M2.139 mAb having specificity for the CII(551-564) region) that recognize the CII epitopes in a conformation dependent manner as confirmed in FIG. 8. Identical titration curves for the native CII and the synthetic polypeptides indicate that the synthetic polypeptides have a perfect image of the conformational epitope. […] Heat denaturation was achieved by heating the CII polypeptide to greater than 50° C. for two hours prior to the coating of the microtiter wells.

[5] = test system: monoclonal anti-CII antibody 122.9; test: ELISA, coated polypeptide complexes capture anti-CII monoclonal antibody; type: binding; details: monoclonal antibody 122.9, Rat; coated wells
Source text: (§1) Triple helical polypeptide complexes [(Gly-Pro-Hyp)5-CII(358-366Hyp-369)-(Gly-Pro-Hyp)2]3LAhx, [(Gly-Pro-Hyp)5-CII(259-273Hyp-274)-(Gly-Pro-Hyp)2]3LAhx, [(Gly-Pro-Hyp)5-CII(259-273Hyp-274)-CII(359-366Hyp)-(Gly-Pro-Hyp)2]3LAhx, [(Gly-Pro-Hyp)5-CII(494-504Hyp)-(Gly-Pro-Hyp)2]3LAhx, and [(Gly-Pro-Hyp)5-CII(551-552Hyp-564)-(Gly-Pro-Hyp)2]3LAhx were used in an ELISA to detect anti-CII-antibodies. Specifically, Immulon2 HB (Dynex/Technologies Inc., USA) plates were coated with [(Gly-Pro-Hyp)5-CII(358-366Hyp-369)-(Gly-Pro-Hyp)2]3LAhx, [(Gly-Pro-Hyp)5-CII(259-273Hyp-274)-(Gly-Pro-Hyp)2]3LAhx, [(Gly-Pro-Hyp)5-CII(259-273Hyp-274)-CII(359-366Hyp)-(Gly-Pro-Hyp)2]3LAhx, [(Gly-Pro-Hyp)5-CII(494-504Hyp)-(Gly-Pro-Hyp)2]3LAhx, and [(Gly-Pro-Hyp)5-CII(551-552Hyp-564)-(Gly-Pro-Hyp)2]3LAhx in a volume of 50 μL/well and at a concentration of 5 μg/mL. Wells coated with native rat CII (rCII; 10 μg/mL) were used as a positive control, while negative controls included wells coated with native rat type I collagen (rCI; 10 μg/mL) and wells coated with phosphate-buffered saline (PBS; pH 7.4).
(§2) After coating, the plates were incubated for at least one hour in a humid chamber at 4° C. After incubation, the plates were washed three times with PBS using an automatic microtiter plate-washing device (Skan Washer 300, Skatron instruments) and incubated with 50 μL/well of bovine serum albumin (BSA; Sigma, St. Louis, Mo.; 10 mg/mL in PBS) for two hours at 20° C. The wells were washed five times with PBS using ELISA washing equipment (Skatron, Norway) and incubated with a monoclonal anti-CII antibody (50 μL/well in titrated concentrations) for two hours at 20° C. After this two hour incubation, the plates were washed with PBS-Tween and incubated with a secondary enzyme-labeled antibody for two hours at 20° C. For detection of mouse antibodies, peroxidase labeled goat anti-mouse IgG (H+L) (Jackson ImmunoResearch Laboratories, Inc., USA) were used. For detection of rat antibodies, peroxidase labeled goat anti-rat IgG (H+L) (Jackson ImmunoResearch Laboratories, Inc. USA) were used.
(§3) After washing the wells with PBS, the assay was developed using the ABTS system (Boehringer-Mannheim, Mannheim, Germany), and the absorbance levels determined at 405 nm (ELISA reader, Titertek). Titers and concentrations of the monoclonal antibodies were calculated using limiting dilution (ELISA software: HyperELISA 3.0).

[6] = test system: monoclonal anti-CII antibody 125.5; test: as above; type: binding; details: monoclonal antibody 125.5, Rat; coated wells
Source text: as §1, §2, §3

[7] = test system: monoclonal anti-CII antibody 126.30; test: as above; type: binding; details: monoclonal antibody 126.30, Rat; coated wells
Source text: as §1, §2, §3

[8] = test system: monoclonal anti-CII antibody 126.35; test: as above; type: binding; details: monoclonal antibody 126.35, Rat; coated wells
Source text: as §1, §2, §3

[9] = test system: monoclonal anti-CII antibody 145.322; test: as above; type: binding; details: monoclonal antibody 145.322, Rat; coated wells
Source text: as §1, §2, §3

[10] = test system: monoclonal anti-CII antibody 146.50; test: as above; type: binding; details: monoclonal antibody 146.50, Rat; coated wells
Source text: as §1, §2, §3

[11] = test system: monoclonal anti-CII antibody EB2; test: as above; type: binding; details: monoclonal antibody EB2, Mouse; coated wells
Source text: as §1, §2, §3

[12] = test system: monoclonal anti-CII antibody EB63; test: as above; type: binding; details: monoclonal antibody EB63, Mouse; coated wells
Source text: as §1, §2, §3

[13] = test system: monoclonal anti-CII antibody M2 139; test: as above; type: binding; details: monoclonal antibody M2 139, Mouse; coated wells
Source text: as §1, §2, §3

[14] = test system: monoclonal anti-CII antibody M2 76; test: as above; type: binding; details: monoclonal antibody M2 76, Mouse; coated wells
Source text: as §1, §2, §3

[15] = test system: monoclonal anti-CII antibody M2 84; test: as above; type: binding; details: monoclonal antibody M2 84, Mouse; coated wells
Source text: as §1, §2, §3

[16] = test system: monoclonal anti-CII antibody M2 87; test: as above; type: binding; details: monoclonal antibody M2 87, Mouse; coated wells
Source text: as §1, §2, §3

[17] = test system: monoclonal anti-CII antibody M2 88; test: as above; type: binding; details: monoclonal antibody M2 88, Mouse; coated wells
Source text: as §1, §2, §3

[18] = test system: CD4+ T cells; test: IL-2 response of CD4+ T cells upon in vitro stimulation, two-color flow cytometry; type: cell-based, human; details: 10 μg per mL plus anti-CD28
[19] = test system: HCQ.10 hybridoma; test: Detection of transgenic CII from skin grafts by T cell hybridoma, CTLL assay; type: cell-based, mice; details: HCQ.10, specific for glycosylated CII(256-270)
Procedure: (§4) T cell hybridomas HCQ.4 and HCQ.10, specific for CII(256-270) without posttranslational modification and with glucose on hydroxylysin at position K264 respectively, were used to detect transgenic […] prepared from TSC or recipients grafts at the end of arthritis experiments as described earlier (Michaelsson et al., J. Exp. Med., 180:745–749 (1994) and Corthay et al., Eur. J. Immunol., 28:2580–2590 (1998)). Briefly, syngeneic spleen cells were incubated with titrated amount of antigen at 5×10^5/mL together with the hybridoma cells at 5×10^4/mL. The interleukin-2 production was detected after 24 hours by transferring 100 μL of the supernatant to new plates. Plates were snap-frozen to avoid any contamination of living cells before addition of 10^4 CTLL/well. CTLL were incubated for 24 hours before thymidine-labeling and harvesting 15–18 hours later.

[20] = test system: HCQ.4 hybridoma; test: as above; type: cell-based, mice; details: HCQ.4, specific for non-glycosylated CII(256-270)
Procedure: as §4

Substance: GEPGIAGFKGEQGPK [CII(256-270), non-glycosylated, unlinked polypeptide]
- stimulation of T cell hybridoma cells (IL-2 production) ([1]; non-fixed APC): potent stimulators
- stimulation of T cell hybridoma cells (IL-2 production) ([1]; presented by formalin-fixed spleen cells (FIGS. 25–26)): stimulated

Substance: [(Gly-Pro-Hyp)5-CII(259-274)-(Gly-Pro-Hyp)2]3LAhx [linked polypeptide composition]
- stimulation of T cells (IL-2 content, CTLL assay, CPM) [2]: stimulated T cells
- development of arthritis ([3]; adult C3H.Q mice, 100 μg intradermally in incomplete Freund's adjuvant (FIG. 6)): abrogated development of arthritis
- antibody response ([3]; five weeks after treating the mice with rat CII): lower

Substance: heat denatured CII: CII polypeptide heated to greater than 50° C. for two hours prior to coating
- binding of C1 mAb / M2.139 mAb, titration curves [4]: does not bind

Substance: rCII: native rat type II collagen, positive control
- end point titer value in ng antibody/mL [5]: 10 ng antibody/mL
- end point titer value in ng antibody/mL [6]: 10 ng antibody/mL
- end point titer value in ng antibody/mL [7]: 10 ng antibody/mL
- end point titer value in ng antibody/mL [8]: 10 ng antibody/mL
- end point titer value in ng antibody/mL [9]: 100 ng antibody/mL
- end point titer value in ng antibody/mL [10]: 100 ng antibody/mL
- end point titer value in ng antibody/mL [11]: <10 ng antibody/mL
- end point titer value in ng antibody/mL [12]: 100 ng antibody/mL
- end point titer value in ng antibody/mL [13]: 10 ng antibody/mL
- end point titer value in ng antibody/mL [14]: 10 ng antibody/mL
- end point titer value in ng antibody/mL [15]: 10 ng antibody/mL
- end point titer value in ng antibody/mL [16]: 10 ng antibody/mL
- end point titer value in ng antibody/mL [17]: 10 ng antibody/mL
- stimulation of T cells (IL-2 content, CTLL assay, CPM) [2]: did not

Substance: tetanus toxoid [TT]
- IL-2 response of CD4+ T cells (percent of IL-2-producing CD4+ T cells) ([18]; patient RA 1): 0.38%
- IL-2 response of CD4+ T cells (percent of IL-2-producing CD4+ T cells) ([18]; patient RA 2): 0.61%
- IL-2 response of CD4+ T cells (percent of IL-2-producing CD4+ T cells) ([18]; patient RA 3): 0.20%

Substance: whole CII protein: whole type II collagen protein
- stimulation of hybridoma (IL-2, CTLL assay) [19]: respond
- stimulation of hybridoma (IL-2, CTLL assay) [20]: respond
